Where “and” joins values, the source holds several entries; their conditions need not be identical. Equal entries are not always repeated.
Key:
Assay type in all cases: in vivo
rabbit eye = test: Pupillary diameter measurement, rabbit paracentesis model; details: individual eyes, listed as BOL; for Pupillary diameter T2: −5 min: 5 min before the first paracentesis; for Pupillary diameter T3: +115 min: 5 min before the second paracentesis; for Pupillary diameter Δ(T3 − T1): +115 min minus −180 min; for Pupillary diameter T1: −180 min: basal
Method: (§1) Each rabbit was placed in a restraint device and tagged with the alphanumeric code. The formulations were instilled (50 μl) into the conjunctival sac of both eyes 180, 120, 90 and 30 min before the first paracentesis; then 15, 30, 90 min after the first paracentesis. To perform the first paracentesis the animals were anaesthetized by intravenous injection of 5 mg/kg Zoletil® (Virbac; 2.5 mg/kg tiletamine HCl and 2.5 mg/kg zolazepam HCl) and one drop of local anesthetic (Novesina®, Novartis) was administered to the eye. Anterior chamber paracentesis was performed with a 26 G needle attached to a tuberculin syringe; the needle was introduced into the anterior chamber through the cornea, taking care not to damage the tissues. Two hours after the ® first paracentesis, the animals were sacrificed with 0.4 ml Tanax® (Intervet International B.V.) and the second paracentesis was performed. About 100 μl of aqueous humor were removed at the second paracentesis. Aqueous humor was immediately split in four aliquots and stored at −80° C. until analysis. Then both eyes were enucleated and the iris-ciliary body was carefully excised, placed in polypropylene tubes, and stored at −80° C. until analysis.
The pupillary diameter of both eyes was measured with a Castroviejo caliper 180 min and 5 min before the first paracentesis and 5 min before the second paracentesis.
(§2) Pupillary diameter, PGE2, protein, PMN, and MPO were expressed as mean±SEM. Statistical analysis was performed using one way ANOVA followed by a Newman-Keuls post hoc test. Clinical score was expressed as % of eyes and the statistical analysis was performed using Kruskal-Wallis followed by a Dunn post hoc test. P<0.05 was considered statistically significant in both cases. Prism 4 software (GraphPad Software, Inc.) was used for the analysis and graphs.

[1] = test system: protein concentration in the aqueous humor; test: Protein measurement in aqueous humor, rabbit paracentesis model; details: for Protein in aqueous humor, Mean / Protein in aqueous humor: second paracentesis; for Protein in aqueous humor: individual eyes, listed as BOL
Method: as §1
For protein concentration determination in the aqueous humor we used the Protein Quantification Kit (Fluka; Cat. No. 77371; Lot. No. 1303129). Five microliters of aqueous humor were diluted to 100 μl with water. Twenty microliters of samples and of standards were load into a 96-well plate and recorded in a plate layout. Samples were treated following the assay procedure described in the kit. A microplate reader (GDV, Italy; model DV 990 B/V6) set at 670 nm was used for making the calibration and analyzing the samples.
as §2

[2] = test system: intraocular pressure (IOP) in New Zealand White rabbits; test: Intraocular pressure in New Zealand White rabbits, topical dosing four times daily; details: for Intraocular Pressure, MEAN: A.M. readings
Method: On Days 1-31, animals received daily topical doses of the appropriate test article into the right eye. Animals were dosed four times per day, with doses administered 2 hours apart. Doses were administered using a calibrated 50-μL pipette. The eyelids were held close for 10 seconds immediately following dosing. The time of each dose administration was recorded.
Intraocular pressure (“IOP”) was determined for both eyes of each animal on Days 3, 5, 10, 12, 16, 18, 22, 24, 26, 30, and 32. LOP was evaluated with a Medtronic Solan, Model 30 classic pneumatonometer. Proparacaine hydrochloride 0.5% (1 drop) was delivered to each eye prior to IOP measurement. IOP was measured on Monday, Wednesday, and Friday of each week. A two-point diurnal curve was established: IOP was recorded at 8 a.m. and 12 p.m. on Day 3, and at 8 a.m. and 2 p.m. on later days, with a ±1 hour range for each of these times. The time of the measurements was recorded.
Descriptive statistics were prepared for IOP data of each treatment group (left and right eyes separately) at each measurement interval. The statistics included the number of observations (“N”), mean, standard deviation (“STD”), and standard error (“SEM”). Statistical analyses were conducted on IOP results using Statistical Analysis Systems (SAS Institute, Inc., Cary, N.C., V8.0). Parameters were evaluated using analysis of variance/GLM Procedure followed by Tukey's Standardized Range Test (Tukey, 1985) for post hoc comparisons of group means. The level of significance was set at a probability of p<0.05 for all statistical procedures. Group IOP means were compared at each interval, with left and right eyes compared separately.
IOP data for the following six animals were excluded from group statistics: Group A, Nos. 3081, 3037, 3068, and 3011; Group C, No. 3034; and Group E, No. 3084.

Structure (SMILES): Cc1ccc2c(NCC(O)(CC(C)(C)c3cc(F)cc4c3OCC4)C(F)(F)F)cccc2n1 (stereo not shown) [BOL-303242-X]
- Pupillary diameter T2: −5 min (rabbit eye; 0.1% topical formulation): 6.5 mm (3×) and 7.0 mm (4×) and 7.5 mm
- Pupillary diameter T3: +115 min (rabbit eye; 0.1% topical formulation): 5.0 mm (2×) and 6.0 mm (3×) and 6.5 mm and 5.5 mm (2×)
- Pupillary diameter Δ(T3 − T1) (rabbit eye; 0.1% topical formulation): −1.5 mm (4×) and −0.5 mm (2×) and −1.0 mm (2×)
- Pupillary diameter T1: −180 min (rabbit eye; 0.1% topical formulation): 6.5 mm (4×) and 7.0 mm (3×) and 7.5 mm
- Pupillary diameter T2: −5 min (rabbit eye; 0.5% topical formulation): 8.0 mm (3×) and 7.0 mm (4×) and 7.5 mm
- Pupillary diameter T3: +115 min (rabbit eye; 0.5% topical formulation): 6.5 mm (4×) and 6.0 mm (2×) and 7.0 mm (2×)
- Pupillary diameter Δ(T3 − T1) (rabbit eye; 0.5% topical formulation): −1.5 mm (2×) and −0.5 mm (2×) and −1.0 mm (4×)
- Pupillary diameter T1: −180 min (rabbit eye; 0.5% topical formulation): 8.0 mm (3×) and 7.0 mm (3×) and 7.5 mm (2×)
- Pupillary diameter T2: −5 min (rabbit eye; 1% topical formulation): 6.0 mm (2×) and 6.5 mm (4×) and 7.0 mm (2×)
- Pupillary diameter T3: +115 min (rabbit eye; 1% topical formulation): 5.5 mm (2×) and 5.0 mm (4×) and 6.0 mm (2×)
- Pupillary diameter Δ(T3 − T1) (rabbit eye; 1% topical formulation): −0.5 mm (3×) and −1.5 mm (2×) and −1.0 mm (3×)
- Pupillary diameter T1: −180 min (rabbit eye; 1% topical formulation): 6.0 mm (3×) and 6.5 mm (5×)
- Protein in aqueous humor, Mean ([1]; 0.1% topical formulation): 33.667 mg/mL
- Protein in aqueous humor ([1]; 0.1% topical formulation): 34.87 mg/mL and 34.41 mg/mL and 31.14 mg/mL and 22.82 mg/mL and 29.46 mg/mL and 31.69 mg/mL and 35.70 mg/mL and 49.25 mg/mL
- Protein in aqueous humor, statistical significance vs CTR ([1]; 0.5% topical formulation, p<0.05): statistical significance
- Protein in aqueous humor, Mean ([1]; 0.5% topical formulation): 28.844 mg/mL
- Protein in aqueous humor ([1]; 0.5% topical formulation): 33.98 mg/mL and 33.65 mg/mL and 19.99 mg/mL and 27.11 mg/mL and 19.72 mg/mL and 36.35 mg/mL and 27.71 mg/mL and 32.24 mg/mL
- Protein in aqueous humor, statistical significance vs CTR ([1]; 1% topical formulation, p<0.001): statistical significance
- Protein in aqueous humor, Mean ([1]; 1% topical formulation): 21.435 mg/mL
- Protein in aqueous humor ([1]; 1% topical formulation): 20.99 mg/mL and 21.48 mg/mL and 15.11 mg/mL and 20.28 mg/mL and 20.94 mg/mL and 21.89 mg/mL and 20.03 mg/mL and 30.76 mg/mL
- Intraocular Pressure, MEAN ([2]; 1 mg/g BOL-303242-X (Group D), untreated left eyes, Day 3): 23.5 mmHg
- Intraocular Pressure, MEAN ([2]; 1 mg/g BOL-303242-X (Group D), untreated left eyes, Day 5): 24.4 mmHg
- Intraocular Pressure, MEAN ([2]; 1 mg/g BOL-303242-X (Group D), untreated left eyes, Day 10): 24.5 mmHg
- Intraocular Pressure, MEAN ([2]; 1 mg/g BOL-303242-X (Group D), untreated left eyes, Day 12): 22.2 mmHg
- Intraocular Pressure, MEAN ([2]; 1 mg/g BOL-303242-X (Group D), untreated left eyes, Day 16): 21.6 mmHg
- Intraocular Pressure, MEAN ([2]; 1 mg/g BOL-303242-X (Group D), untreated left eyes, Day 18): 23.3 mmHg
- Intraocular Pressure, MEAN ([2]; 1 mg/g BOL-303242-X (Group D), untreated left eyes, Day 22): 22.4 mmHg
- Intraocular Pressure, MEAN ([2]; 1 mg/g BOL-303242-X (Group D), untreated left eyes, Day 24): 22.4 mmHg
- Intraocular Pressure, MEAN ([2]; 1 mg/g BOL-303242-X (Group D), untreated left eyes, Day 26): 22.9 mmHg
- Intraocular Pressure, MEAN ([2]; 1 mg/g BOL-303242-X (Group D), untreated left eyes, Day 30): 23.4 mmHg
- Intraocular Pressure, MEAN ([2]; 1 mg/g BOL-303242-X (Group D), untreated left eyes, Day 32): 24.1 mmHg
- Intraocular Pressure, MEAN ([2]; 1 mg/g BOL-303242-X (Group D), untreated left eyes, Pre-Study): 23.9 mmHg
- Intraocular Pressure, MEAN ([2]; 5 mg/g BOL-303242-X (Group C), untreated left eyes, Day 3): 23.8 mmHg
- Intraocular Pressure, MEAN ([2]; 5 mg/g BOL-303242-X (Group C), untreated left eyes, Day 5): 24.4 mmHg
- Intraocular Pressure, MEAN ([2]; 5 mg/g BOL-303242-X (Group C), untreated left eyes, Day 10): 24.6 mmHg
- Intraocular Pressure, MEAN ([2]; 5 mg/g BOL-303242-X (Group C), untreated left eyes, Day 12): 23.8 mmHg
- Intraocular Pressure, MEAN ([2]; 5 mg/g BOL-303242-X (Group C), untreated left eyes, Day 16): 23.4 mmHg
- Intraocular Pressure, MEAN ([2]; 5 mg/g BOL-303242-X (Group C), untreated left eyes, Day 18): 21.9 mmHg
- Intraocular Pressure, MEAN ([2]; 5 mg/g BOL-303242-X (Group C), untreated left eyes, Day 22): 21.6 mmHg
- Intraocular Pressure, MEAN ([2]; 5 mg/g BOL-303242-X (Group C), untreated left eyes, Day 24): 22.1 mmHg
- Intraocular Pressure, MEAN ([2]; 5 mg/g BOL-303242-X (Group C), untreated left eyes, Day 26): 21.7 mmHg
- Intraocular Pressure, MEAN ([2]; 5 mg/g BOL-303242-X (Group C), untreated left eyes, Day 30): 22.6 mmHg
- Intraocular Pressure, MEAN ([2]; 5 mg/g BOL-303242-X (Group C), untreated left eyes, Day 32): 23.1 mmHg
- Intraocular Pressure, MEAN ([2]; 5 mg/g BOL-303242-X (Group C), untreated left eyes, Pre-Study): 24.2 mmHg
- Intraocular Pressure, MEAN ([2]; 10 mg/g BOL-303242-X (Group B), untreated left eyes, Day 3): 23.3 mmHg
- Intraocular Pressure, MEAN ([2]; 10 mg/g BOL-303242-X (Group B), untreated left eyes, Day 5): 23.4 mmHg
- Intraocular Pressure, MEAN ([2]; 10 mg/g BOL-303242-X (Group B), untreated left eyes, Day 10): 24.0 mmHg
- Intraocular Pressure, MEAN ([2]; 10 mg/g BOL-303242-X (Group B), untreated left eyes, Day 12): 23.8 mmHg
- Intraocular Pressure, MEAN ([2]; 10 mg/g BOL-303242-X (Group B), untreated left eyes, Day 16): 22.9 mmHg
- Intraocular Pressure, MEAN ([2]; 10 mg/g BOL-303242-X (Group B), untreated left eyes, Day 18): 21.2 mmHg
- Intraocular Pressure, MEAN ([2]; 10 mg/g BOL-303242-X (Group B), untreated left eyes, Day 22): 21.8 mmHg
- Intraocular Pressure, MEAN ([2]; 10 mg/g BOL-303242-X (Group B), untreated left eyes, Day 24): 20.2 mmHg
- Intraocular Pressure, MEAN ([2]; 10 mg/g BOL-303242-X (Group B), untreated left eyes, Day 26): 21.7 mmHg
- Intraocular Pressure, MEAN ([2]; 10 mg/g BOL-303242-X (Group B), untreated left eyes, Day 30): 22.7 mmHg
- Intraocular Pressure, MEAN ([2]; 10 mg/g BOL-303242-X (Group B), untreated left eyes, Day 32): 22.9 mmHg
- Intraocular Pressure, MEAN ([2]; 10 mg/g BOL-303242-X (Group B), untreated left eyes, Pre-Study): 23.8 mmHg
- Differences in mean IOP versus the BSS group ([2]; BOL-303242-X 1, 5, 10 mg/g suspensions): No statistically significant (p<0.05) differences
- IOP compared to daily dosing with dexamethasone ([2]; BOL-303242-X suspensions 0.05, 0.25 or 0.5 mg/dose, daily dosing up to 31 days): did not increase IOP
- Mean IOP after treatment began ([2]; rabbits, right eye four times daily up to 31 days, dexamethasone 0.1%, BOL-303242-X 1, 5, 10 mg/g, left and right eyes): This increase was not seen
- Intraocular Pressure, MEAN ([2]; treated right eyes, Day 3, 1 mg/g (Group D)): 23.0 mmHg
- Intraocular Pressure, MEAN ([2]; treated right eyes, Day 3, 5 mg/g (Group C)): 23.7 mmHg

From patent US20120065228A1, “COMPOSITIONS AND METHODS FOR TREATING, CONTROLLING, REDUCING, OR AMELIORATING OCULAR INFLAMMATORY WITH LOWER RISK OF INCREASED INTRAOCULAR PRESSURE” (priority 2007, published 2012)
